Measurements published in PubChem BioAssay AID2060484 (Molecular Pharmacology Branch, DTP, NCI, 2025).
pIC50: −log10 of the molar value.

Tested on: SUM149PT spheroids with HUVEC/MSC, viability
Assay: Anticancer human tumor SUM149PT cell line growth inhibition [GQUAD];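 note: spheroids exposed to drugs for seven days before readout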;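 for viability, T/C: percent viability relative to DMSO vehicle control taken as 100%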
Conditions: for pIC50: curve of first compound; for viability, T/C: stronger effect = lower value
Procedure, shortened: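 Multi-cell-type spheroids of tumor cells with HUVEC and mesenchymal stem cells, treated with drug combinations. Concentrations descend in half-log steps from near clinical Cmax, or from 10 microM where Cmax is unknown; viability read-out.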

[1] = second compound 0.0316 µM, first compound 0.000999 µM
[2] = second compound 0.0316 µM, first compound 0.00316 µM
[3] = second compound 0.0316 µM, first compound 0.00999 µM
[4] = second compound 0.0316 µM, first compound 0.0316 µM
[5] = second compound 0.0316 µM, first compound 0.0999 µM
[6] = second compound 0.0316 µM, first compound 0.316 µM
[7] = second compound 0.1 µM, first compound 0.000999 µM
[8] = second compound 0.1 µM, first compound 0.00316 µM
[9] = second compound 0.1 µM, first compound 0.00999 µM
[10] = second compound 0.1 µM, first compound 0.0316 µM
[11] = second compound 0.1 µM, first compound 0.0999 µM
[12] = second compound 0.1 µM, first compound 0.316 µM
[13] = second compound 0.316 µM, first compound 0.000999 µM
[14] = second compound 0.316 µM, first compound 0.00316 µM
[15] = second compound 0.316 µM, first compound 0.00999 µM
[16] = second compound 0.316 µM, first compound 0.0316 µM
[17] = second compound 0.316 µM, first compound 0.0999 µM
[18] = second compound 0.316 µM, first compound 0.316 µM
[19] = second compound 1 µM, first compound 0.000999 µM
[20] = second compound 1 µM, first compound 0.00316 µM
[21] = second compound 1 µM, first compound 0.00999 µM
[22] = second compound 1 µM, first compound 0.0316 µM
[23] = second compound 1 µM, first compound 0.0999 µM
[24] = second compound 1 µM, first compound 0.316 µM
[25] = second compound 3.16 µM, first compound 0.000999 µM
[26] = second compound 3.16 µM, first compound 0.00316 µM
[27] = second compound 3.16 µM, first compound 0.00999 µM
[28] = second compound 3.16 µM, first compound 0.0316 µM
[29] = second compound 3.16 µM, first compound 0.0999 µM
[30] = second compound 3.16 µM, first compound 0.316 µM
[31] = second compound 10 µM, first compound 0.000999 µM
[32] = second compound 10 µM, first compound 0.00316 µM
[33] = second compound 10 µM, first compound 0.00999 µM
[34] = second compound 10 µM, first compound 0.0316 µM
[35] = second compound 10 µM, first compound 0.0999 µM
[36] = second compound 10 µM, first compound 0.316 µM

Cn1ncnc1[C@H]1c2n[nH]c(=O)c3cc(F)cc(c23)N[C@@H]1c1ccc(F)cc1 + Cc1cnc(CNC(=O)c2c(=O)c3ccc(N4CCCN(C)CC4)nc3n3c2sc2ccccc23)cn1
pIC50 (second compound 0.0316 µM): 6.84 | pIC50 (second compound 0.1 µM): 7.54 | pIC50 (second compound 0.316 µM): 8.24 | pIC50 (second compound 1 µM): > 9.00 | pIC50 (second compound 3.16 µM): > 9.00 | pIC50 (second compound 10 µM): > 9.00 | viability, T/C [1]: 92.1% | viability, T/C [2]: 68.9% | viability, T/C [3]: 77.1% | viability, T/C [4]: 68.2% | viability, T/C [5]: 50.4% | viability, T/C [6]: 42.5% | viability, T/C [7]: 71.2% | viability, T/C [8]: 63% | viability, T/C [9]: 53.7% | viability, T/C [10]: 52.2% | viability, T/C [11]: 43.2% | viability, T/C [12]: 40.8% | viability, T/C [13]: 53.9% | viability, T/C [14]: 53.4% | viability, T/C [15]: 48.7% | viability, T/C [16]: 45.4% | viability, T/C [17]: 41.1% | viability, T/C [18]: 41.6% | viability, T/C [19]: 47.8% | viability, T/C [20]: 48.8% | viability, T/C [21]: 38.5% | viability, T/C [22]: 41.1% | viability, T/C [23]: 38.5% | viability, T/C [24]: 34.2% | viability, T/C [25]: 38.5% | viability, T/C [26]: 39.5% | viability, T/C [27]: 34.4% | viability, T/C [28]: 34.6% | viability, T/C [29]: 35.3% | viability, T/C [30]: 33.4% | viability, T/C [31]: 10.1% | viability, T/C [32]: 9.37% | viability, T/C [33]: 33.9% | viability, T/C [34]: 28.9% | viability, T/C [35]: 9.31% | viability, T/C [36]: 0.26%

CCCS(=O)(=O)Nc1ccc(F)c(C(=O)c2c[nH]c3ncc(-c4ccc(Cl)cc4)cc23)c1F + Cc1cnc(CNC(=O)c2c(=O)c3ccc(N4CCCN(C)CC4)nc3n3c2sc2ccccc23)cn1
pIC50 (second compound 0.0316 µM): 5.23 | pIC50 (second compound 0.1 µM): 5.51 | pIC50 (second compound 0.316 µM): 5.84 | pIC50 (second compound 1 µM): > 7.50 | pIC50 (second compound 3.16 µM): > 7.50 | pIC50 (second compound 10 µM): > 7.50 | viability, T/C [4]: 80% | viability, T/C (second compound 0.0316 µM, first compound 0.1 µM): 76.5% | viability, T/C [6]: 96.1% | viability, T/C (second compound 0.0316 µM, first compound 1 µM): 88.6% | viability, T/C (second compound 0.0316 µM, first compound 3.16 µM): 67.5% | viability, T/C (second compound 0.0316 µM, first compound 10 µM): 34.9% | viability, T/C [10]: 67.8% | viability, T/C (second compound 0.1 µM, first compound 0.1 µM): 68.3% | viability, T/C [12]: 79.3% | viability, T/C (second compound 0.1 µM, first compound 1 µM): 66.5% | viability, T/C (second compound 0.1 µM, first compound 3.16 µM): 50% | viability, T/C (second compound 0.1 µM, first compound 10 µM): 33.2% | viability, T/C [16]: 51.9% | viability, T/C (second compound 0.316 µM, first compound 0.1 µM): 57.5% | viability, T/C [18]: 56.5% | viability, T/C (second compound 0.316 µM, first compound 1 µM): 52.9% | viability, T/C (second compound 0.316 µM, first compound 3.16 µM): 43.2% | viability, T/C (second compound 0.316 µM, first compound 10 µM): 31% | viability, T/C [22]: 51.5% | viability, T/C (second compound 1 µM, first compound 0.1 µM): 46% | viability, T/C [24]: 44.6% | viability, T/C (second compound 1 µM, first compound 1 µM): 46.6% | viability, T/C (second compound 1 µM, first compound 3.16 µM): 37.7% | viability, T/C (second compound 1 µM, first compound 10 µM): 25.4% | viability, T/C [28]: 37.5% | viability, T/C (second compound 3.16 µM, first compound 0.1 µM): 38% | viability, T/C [30]: 43.1% | viability, T/C (second compound 3.16 µM, first compound 1 µM): 38% | viability, T/C (second compound 3.16 µM, first compound 3.16 µM): 37% | viability, T/C (second compound 3.16 µM, first compound 10 µM): 23.4% | viability, T/C [34]: 0.2% | viability, T/C (second compound 10 µM, first compound 0.1 µM): 11.8% | viability, T/C [36]: 0.67% | viability, T/C (second compound 10 µM, first compound 1 µM): 11.7% | viability, T/C (second compound 10 µM, first compound 3.16 µM): 2.28% | viability, T/C (second compound 10 µM, first compound 10 µM): 2.88%

Cc1[nH]c2ccccc2c1CCNCc1ccc(/C=C/C(=O)NO)cc1 + CN(C)c1ccc(Nc2c3ccc(NC(=O)CCN4CCCC4)cc3nc3cc(NC(=O)CCN4CCCC4)ccc23)cc1
pIC50 (second compound 0.0316 µM): 6.60 | pIC50 (second compound 0.1 µM): 6.63 | pIC50 (second compound 0.316 µM): 6.64 | pIC50 (second compound 1 µM): 6.69 | pIC50 (second compound 3.16 µM): 6.72 | pIC50 (second compound 10 µM): 6.88 | viability, T/C [1]: 103% | viability, T/C [2]: 98% | viability, T/C [3]: 96.5% | viability, T/C [4]: 102% | viability, T/C [5]: 85.4% | viability, T/C [6]: 41.5% | viability, T/C [7]: 97.8% | viability, T/C [8]: 97.1% | viability, T/C [9]: 96.6% | viability, T/C [10]: 90.7% | viability, T/C [11]: 87.6% | viability, T/C [12]: 37.4% | viability, T/C [13]: 91.2% | viability, T/C [14]: 96.8% | viability, T/C [15]: 88.8% | viability, T/C [16]: 91.1% | viability, T/C [17]: 89.8% | viability, T/C [18]: 35.1% | viability, T/C [19]: 90.9% | viability, T/C [20]: 88.5% | viability, T/C [21]: 84.3% | viability, T/C [22]: 85.5% | viability, T/C [23]: 81.7% | viability, T/C [24]: 29.6% | viability, T/C [25]: 81.6% | viability, T/C [26]: 88.5% | viability, T/C [27]: 86.5% | viability, T/C [28]: 84.5% | viability, T/C [29]: 72.5% | viability, T/C [30]: 32.1% | viability, T/C [31]: 90% | viability, T/C [32]: 84.7% | viability, T/C [33]: 82.6% | viability, T/C [34]: 84.3% | viability, T/C [35]: 58% | viability, T/C [36]: 25.9%
